Results published in a compilation of properties of binary mixtures (doi:10.2298/jsc160317058s).

Test: xn = mol fraction of the nth substance listed
Conditions: 100 kPa

CN(C)c1ccccc1 + CCCC[n+]1ccn(C)c1.O=S(=O)([O-])C(F)(F)F
viscosity [mPa·s]
Conditions	288.15 K	293.15 K	298.15 K	303.15 K	308.15 K	313.15 K	318.15 K	323.15 K	328.15 K	333.15 K
x1 = 0.1	97.6	75.7	59.9	48.1	39.5	32.2	–	23	–	–
x1 = 0.2	72.8	57.1	45.7	37	–	–	21.46	18.3	15.74	13.64
x1 = 0.2998	–	42.8	34.8	28.4	23.9	19.91	17.1	14.72	12.77	11.16
x1 = 0.397	–	31.5	–	21.69	18.27	15.46	13.4	11.63	10.19	8.98
x1 = 0.5045	26.1	21.17	17.76	14.77	12.85	11.04	9.68	8.5	7.52	–
x1 = 0.5996	16.87	13.93	11.92	10.23	8.87	7.69	6.84	6.08	5.43	4.9
x1 = 0.6997	–	8.5	7.42	6.47	5.71	–	–	4.09	3.7	3.36
x1 = 0.7994	6	5.21	4.62	4.1	3.68	3.3	3.01	2.75	2.52	2.31
x1 = 0.8945	3.27	2.91	–	2.37	2.164	1.988	–	1.692	–	–
x1 = 1	–	–	1.302	1.206	1.123	1.056	0.981	–	0.865	0.819

Nc1ccccc1 + CCCC[n+]1ccn(C)c1.O=S(=O)([O-])C(F)(F)F
x1 = 1
Conditions	viscosity [mPa·s]
288.15 K	5.32
293.15 K	4.41
298.15 K	3.74
303.15 K	3.2
308.15 K	2.78
313.15 K	2.45
318.15 K	2.159
328.15 K	1.738
333.15 K	1.577

CCCC[n+]1ccn(C)c1.O=S(=O)([O-])C(F)(F)F + CN(C)c1ccccc1
x2 = 0
Conditions	viscosity [mPa·s]
288.15 K	132.7
293.15 K	102
298.15 K	80.1
303.15 K	64
313.15 K	42.8
318.15 K	35.7
323.15 K	30
328.15 K	25.5
333.15 K	22

CCCC[n+]1ccn(C)c1.O=S(=O)([O-])C(F)(F)F + Nc1ccccc1
viscosity [mPa·s]
Conditions	288.15 K	293.15 K	298.15 K	303.15 K	308.15 K	313.15 K	318.15 K	323.15 K	328.15 K	333.15 K
x2 = 0	–	102	80.1	64	52.2	42.8	35.7	30	25.5	22
x2 = 0.1	110.3	85.3	67.5	54.6	44.4	36.6	30.6	25.9	22.17	19.07
x2 = 0.1995	90.9	70.6	–	45.5	37.2	30.7	25.8	21.9	18.82	–
x2 = 0.3002	–	–	45.9	–	30.6	25.4	21.47	–	15.71	13.63
x2 = 0.3996	–	–	–	–	–	–	–	15.11	13.02	11.38
x2 = 0.8999	8.95	7.31	6.18	5.26	4.54	3.93	3.5	–	–	2.47
